Consider 25 compounds from patent US7351732B2, “Cycloalkanedione derivatives, method for the production thereof and their pharmacological applications” (Schwarz Pharma S.L., priority 2002, dated 2008).

Structures can show the parent of a compound that is named as a salt. Where two headings read alike, the source gives them in different places. Where only a bound is given, the exact number is not on record here.

Data set [1] concerns the target α1 receptors. Nature of the data set: Radioligand displacement, α1 receptors, [3H]prazosin. In kind it is binding. Particulars: rat cerebral cortex, read-out: Ki ± E.E. α1. A general note: Loss of bound radioactivity is the signal in a displacement assay; it reports binding, not function.
Data set [2] concerns the target T1, 5-HT1A (Rattus norvegicus, UniProt P19327).
T1 sequence (P19327 1-422): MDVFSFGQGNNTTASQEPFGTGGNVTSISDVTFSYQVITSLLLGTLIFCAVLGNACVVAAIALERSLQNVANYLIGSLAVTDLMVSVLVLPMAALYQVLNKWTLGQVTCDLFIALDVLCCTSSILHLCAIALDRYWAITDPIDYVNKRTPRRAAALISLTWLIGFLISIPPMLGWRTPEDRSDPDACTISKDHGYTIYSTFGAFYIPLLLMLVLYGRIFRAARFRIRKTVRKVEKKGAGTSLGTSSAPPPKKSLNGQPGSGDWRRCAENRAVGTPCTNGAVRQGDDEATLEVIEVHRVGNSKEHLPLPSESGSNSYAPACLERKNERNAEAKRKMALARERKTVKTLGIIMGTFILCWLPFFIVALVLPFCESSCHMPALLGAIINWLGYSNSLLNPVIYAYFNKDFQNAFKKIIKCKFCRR
Nature of the data set: Radioligand displacement, 5-HT1A receptors, [3H]-8-OH-DPAT. In kind it is binding. Particulars: rat cerebral cortex, read-out: Ki ± E.E. 5-HT1A. The arrangement: (a) 5-HT1A receptors, [^3H]-8-OH-DPAT, rat cerebral cortex; from tissue; host or cells: rat cerebral cortex.

Data set [3] addresses T2, 5-HT2A receptors (Rattus norvegicus, UniProt P14842).
T2 construct: (b) 5-HT2A receptors, [^3H]ketanserin, rat cerebral cortex; from tissue; host or cells: rat cerebral cortex
Nature of the data set: Radioligand displacement, 5-HT2A receptors, [3H]ketanserin. Particulars: rat cerebral cortex, read-out: Ki ± E.E. 5-HT2A. The format is binding.

Data set [4] deals with T3, D2 receptors (Rattus norvegicus, UniProt P61169).
T3 construct: (g) D2 receptors, [^3H]spiperone, rat striatum; from tissue; host or cells: rat striatum
Nature of the data set: Radioligand displacement, D2 receptors, [3H]spiperone. In kind it is binding. Particulars: rat striatum, read-out: Ki ± E.E. D2.

Data set [5] deals with T4, 5-HT4 receptors (Rattus norvegicus, UniProt Q62758).
T4 construct: (d) 5-HT4 receptors, [^3H]GR 113808, rat striatum; from tissue; host or cells: rat striatum
Nature of the data set: Radioligand displacement, 5-HT4 receptors, [3H]GR 113808. The format is binding. Particulars: [3H]GR 113808, rat striatum; read-out: Ki ± E.E. 5-HT4.

Data set [6] addresses T5, 5-HT7 receptors (Rattus norvegicus, UniProt P32305).
T5 construct: (e) 5-HT7 receptors, [^3H]-5-CT, rat hypothalamus; from tissue; host or cells: rat hypothalamus
Put plainly: Radioligand displacement, 5-HT7 receptors, [3H]-5-CT. In kind it is binding. Particulars: read-out: Ki ± E.E. 5-HT7.

T5 sequence (P32305 whole entry): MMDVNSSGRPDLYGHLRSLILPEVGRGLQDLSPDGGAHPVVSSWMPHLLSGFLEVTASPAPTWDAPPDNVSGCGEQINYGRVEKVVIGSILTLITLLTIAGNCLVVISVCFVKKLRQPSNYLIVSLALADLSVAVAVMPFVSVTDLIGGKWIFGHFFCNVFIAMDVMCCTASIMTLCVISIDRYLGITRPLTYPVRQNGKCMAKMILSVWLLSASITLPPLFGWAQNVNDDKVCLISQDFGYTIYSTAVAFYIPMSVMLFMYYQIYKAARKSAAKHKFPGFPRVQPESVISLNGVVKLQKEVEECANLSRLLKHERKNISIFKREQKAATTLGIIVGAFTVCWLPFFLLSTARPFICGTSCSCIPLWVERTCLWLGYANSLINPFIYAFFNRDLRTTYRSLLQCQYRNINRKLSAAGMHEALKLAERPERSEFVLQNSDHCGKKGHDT
T2 sequence (P14842 whole entry): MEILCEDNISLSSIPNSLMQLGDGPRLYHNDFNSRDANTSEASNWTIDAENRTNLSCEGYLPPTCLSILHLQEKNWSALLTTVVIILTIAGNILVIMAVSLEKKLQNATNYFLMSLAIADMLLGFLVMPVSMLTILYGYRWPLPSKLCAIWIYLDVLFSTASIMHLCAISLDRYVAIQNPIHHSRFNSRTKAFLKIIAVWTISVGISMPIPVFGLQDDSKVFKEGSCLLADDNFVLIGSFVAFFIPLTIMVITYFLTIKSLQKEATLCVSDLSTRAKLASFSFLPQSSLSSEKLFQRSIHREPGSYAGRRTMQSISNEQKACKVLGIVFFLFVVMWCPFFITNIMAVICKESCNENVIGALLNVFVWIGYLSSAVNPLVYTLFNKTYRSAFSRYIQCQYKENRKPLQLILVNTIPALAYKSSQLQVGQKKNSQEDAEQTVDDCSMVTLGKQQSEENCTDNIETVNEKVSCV
T4 sequence (Q62758 whole entry): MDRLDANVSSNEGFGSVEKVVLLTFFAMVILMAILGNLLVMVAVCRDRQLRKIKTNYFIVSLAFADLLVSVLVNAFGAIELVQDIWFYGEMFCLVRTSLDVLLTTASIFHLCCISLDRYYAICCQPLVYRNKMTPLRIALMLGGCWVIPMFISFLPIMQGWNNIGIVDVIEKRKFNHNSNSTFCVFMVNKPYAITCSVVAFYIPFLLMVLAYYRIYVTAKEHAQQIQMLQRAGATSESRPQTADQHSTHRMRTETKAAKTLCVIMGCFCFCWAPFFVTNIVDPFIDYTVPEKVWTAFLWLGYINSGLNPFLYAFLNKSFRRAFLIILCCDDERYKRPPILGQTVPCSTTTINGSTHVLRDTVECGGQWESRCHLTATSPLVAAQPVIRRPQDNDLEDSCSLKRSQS
T3 sequence (P61169 whole entry): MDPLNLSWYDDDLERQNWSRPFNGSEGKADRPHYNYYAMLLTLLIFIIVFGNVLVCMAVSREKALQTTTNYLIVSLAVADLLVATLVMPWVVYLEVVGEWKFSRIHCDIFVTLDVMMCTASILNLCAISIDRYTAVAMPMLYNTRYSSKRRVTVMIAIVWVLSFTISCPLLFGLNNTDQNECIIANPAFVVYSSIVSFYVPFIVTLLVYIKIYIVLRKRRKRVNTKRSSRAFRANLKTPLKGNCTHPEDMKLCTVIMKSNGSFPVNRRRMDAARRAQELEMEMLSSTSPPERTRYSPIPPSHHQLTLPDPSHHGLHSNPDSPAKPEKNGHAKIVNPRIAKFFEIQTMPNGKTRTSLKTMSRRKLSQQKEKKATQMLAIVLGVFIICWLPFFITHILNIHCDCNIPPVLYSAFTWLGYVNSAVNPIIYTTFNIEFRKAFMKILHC

Consider `COc1ccccc1CNCCCCN1C(=O)C2CCCN2C1=O` (centres unmarked) [Compound 17, 2-[4-[(o-Methoxyphenyl)methylamine]butyl]-1,3-dioxoperhydropyrrolo[1,2-c]imidazol], for which the Ki in data set [1] and in data set [2] was above 10 µM each time. On to `O=C1C2CCCN2C(=O)N1CCCCNCc1ccc2ccccc2c1` (centres unmarked) [Compound 8, 2-[4-[(Naphth-2-yl)methylamine]butyl]-1,3-dioxoperhydropyrrolo[1,2-c]imidazol], for which the Ki (in general, a dissociation constant, usually derived from enzyme kinetics or from competition with a known ligand) in data set [2] came to 0.05101 ± 0.00047 µM. Consider `O=C1CSC(=O)N1CCCCCCNCC1CCc2ccccc2O1` (racemic) [Compound 6, (±)-3-[6-[(Chroman-2-yl)methylamine]hexyl]-2,4-dioxothiazolidin], for which the Ki in data set [2] came out at 0.0013 ± 0.0002 µM.

Turning to `O=C1C2CSCN2C(=O)N1CCCCNCC1CCc2ccccc2O1` (racemic) (as salt: hydrochloride) [Compound 3, (±)-2-[4-[(Chroman-2-yl)methylamine]butyl]-1,3-dioxoperhydroimidazo[1,5-c]-thiazol], the melting point (as a rule, the temperature, or range, at which the solid turns liquid) fell in the range of 142 to 144 °C.

Take `O=C1CSC(=O)N1CCCCNCCOc1cccc2ccccc12` (as salt: hydrochloride) [Compound 15, 3-[4-[2-(Naphth-1-oxi)ethylamine]butyl]-2,4-dioxothiazolidin]: the melting point is 149 to 151 °C.

`O=C1CSC(=O)N1CCCCNCCc1cccc2ccccc12` (as salt: hydrochloride) [Compound 10, 3-[4-[2-(Naphth-1-yl)ethylamine]butyl]-2,4-dioxothiazolidin] gave a melting point of 128 to 129 °C. Still for that read-out and setting: in the case of `COc1ccccc1CCNCCCCN1C(=O)C2CCCN2C1=O` (centres unmarked) (as salt: hydrochloride) [Compound 18, 2-[4-[2-(o-Methoxyphenyl)ethylamine]butyl]-1,3-dioxoperhydropyrrolo[1,2-c]imidazol] it was 160 to 162 °C; in that of `O=C1C2CCCN2C(=O)N1CCCCNCCc1cccc2ccccc12` (centres unmarked) (as salt: hydrochloride) [Compound 9, 2-[4-[2-(Naphth-1-yl)ethylamine]butyl]-1,3-dioxoperhydropyrrolo[1,2-c]imidazol], 95 to 97 °C. For `CN(C)CCCSc1ccccc1NC(=O)/C=C/c1ccccc1` [Cinanserine, reference compound], the Ki in data set [3] turned out to be 0.0026 ± 0.0004 µM. With `O=C1C2SCCN2C(=O)N1CCCCNCC1CCc2ccccc2O1` (racemic) (as salt: hydrochloride) [Compound 2, (±)-2-[4-[(Chroman-2-yl)methylamine]butyl]-1,3-dioxoperhydroimidazo[1,5-b]thiazol], the melting point is 149 to 151 °C. In the case of `O=C1CSC(=O)N1CCCCCNCC1CCc2ccccc2O1` (racemic) [Compound 5, (±)-3-[5-[(Chroman-2-yl)methylamine]pentyl]-2,4-dioxothiazolidin], the Ki in data set [2] stood at 0.0055 ± 0.0004 µM. `O=C1C2CCCN2C(=O)N1CCCCNCCOc1cccc2ccccc12` (centres unmarked) (as salt: hydrochloride) [Compound 14, 2-[4-[2-(Naphth-1-oxi)ethylamine]butyl]-1,3-dioxoperhydropyrrolo[1,2-c]imidazol]: the melting point is 163 to 164 °C. `COc1ccccc1CCNCCCCN1C(=O)C2CCCN2C1=O` (centres unmarked) [Compound 18, 2-[4-[2-(o-Methoxyphenyl)ethylamine]butyl]-1,3-dioxoperhydropyrrolo[1,2-c]imidazol]: the Ki in data set [1] was above 1 µM; in data set [4], above 10 µM; in data set [3] it was above 10 µM; in data set [2], 0.868 ± 0.0231 µM; in data set [5], above 10 µM.

In turn, `O=C1C2CCCN2C(=O)N1CCCCNCc1ccc2ccccc2c1` (centres unmarked) (as salt: hydrochloride) [Compound 8, 2-[4-[(Naphth-2-yl)methylamine]butyl]-1,3-dioxoperhydropyrrolo[1,2-c]imidazol] yielded a melting point of 125 to 127 °C. On the same count and under the same terms, next, `O=C1C2CCCN2C(=O)N1CCCCNCc1nc2ccccc2[nH]1` (centres unmarked) (as salt: hydrochloride) [Compound 16, 2-[4-[(Benzimidazol-2-yl)methylamine]butyl]-1,3-dioxoperhydropyrrolo[1,2-c]imidazol]: 208 to 210 °C.

For `NCCc1c[nH]c2ccc(C(N)=O)cc12` [Compound 5-CT, 5-CT, reference compound], in data set [6] ([3H]-5-CT, rat hypothalamus), the Ki turned out to be 0.0018 ± 0.0006 µM. As to `CCCN(CCC)C1CCc2cccc(O)c2C1` (centres unmarked) [Compound 8-OH-DPAT, 8-OH-DPAT, reference compound], in data set [6], the Ki came out at 0.0838 µM. `O=C1CSC(=O)N1CCCCNCCOc1ccccc1` (as salt: hydrochloride) [Compound 13, 3-[4-[2-(Phenoxy)ethylamine]butyl]-2,4-dioxothiazolidin] yielded a melting point of 173 to 174 °C. In the case of `Cc1ccc(N(CC2=NCCN2)c2cccc(O)c2)cc1` [Phentolamine, reference compound], in data set [1], the Ki was 0.0061 ± 0.0001 µM. Regarding `O=C1C2CCCN2C(=O)N1CCCCNCc1cccc2ccccc12` (centres unmarked) [Compound 7, 2-[4-[(Naphth-1-yl)methylamine]butyl]-1,3-dioxoperhydropyrrolo[1,2-c]imidazol], the Ki in data set [6] ([3H]-5-CT, rat hypothalamus) is above 10 µM; in data set [1], 0.0496 ± 0.0029 µM; in data set [4], above 10 µM; in data set [3], above 1 µM; in data set [5], above 10 µM.

Take `O=C1CSC(=O)N1CCCCCCNCC1CCc2ccccc2O1` (racemic) (as salt: hydrochloride) [Compound 6, (±)-3-[6-[(Chroman-2-yl)methylamine]hexyl]-2,4-dioxothiazolidin]: the melting point lay within 175 to 177 °C. Turning to `O=C1C2CCCN2C(=O)N1CCCCNCCc1cccc2ccccc12` (centres unmarked) [Compound 9, 2-[4-[2-(Naphth-1-yl)ethylamine]butyl]-1,3-dioxoperhydropyrrolo[1,2-c]imidazol], the Ki is above 1 µM in data set [1]; above 10 µM in data set [4]; above 10 µM in data set [3]; 0.0279 ± 0.0031 µM in data set [2]; above 10 µM in data set [5]. For `COc1cc(COc2cc(N)c(Cl)cc2C(=O)CCC2CCN(CCNS(C)(=O)=O)CC2)cc(OC)c1` [RS-39604, reference compound], the Ki in data set [5] is 0.0039 ± 0.0002 µM. Take `O=C1C2CCCN2C(=O)N1CCCCNCc1cccc2ccccc12` (centres unmarked) (as salt: hydrochloride) [Compound 7, 2-[4-[(Naphth-1-yl)methylamine]butyl]-1,3-dioxoperhydropyrrolo[1,2-c]imidazol]: the melting point was 150 to 153 °C. `O=C1C2CCCN2C(=O)N1CCCCNCCc1ccc2ccccc2c1` (centres unmarked) (as salt: hydrochloride) [Compound 11, 2-[4-[2-(Naphth-2-yl)ethylamine]butyl]-1,3-dioxoperhydropyrrolo[1,2-c]imidazol] gave a melting point of 130 to 132 °C.
